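Following 48 hours of exposure in 96-well plates, responses at five concentrations were used to interpolate endpoints linearly. TGI is the concentration that stops growth completely.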
Legend:
Assay in all cases: growth of human tumour cells (NCI), 48 h
[1] = test system: MOLT-4 leukemia
[2] = test system: OVCAR-5 ovarian
[3] = test system: HCT-116 colon
[4] = test system: SF-295 CNS
[5] = test system: MALME-3M melanoma
[6] = test system: 786-0 renal
[7] = test system: HOP-92 NSCLC
[8] = test system: SK-OV-3 ovarian
[9] = test system: HCT-15 colon

Work on CC(=O)n1nnc2ccc([N+](=O)[O-])cc21 yielded a TGI [1] greater than 100 µM, a TGI [2] greater than 100 µM and a TGI [3] greater than 100 µM. For the same molecule, the TGI [4] was greater than 100 µM, the TGI [5] was greater than 100 µM and the TGI [6] was greater than 100 µM. The TGI [7] was greater than 100 µM and the TGI [8] was greater than 100 µM.

O=C1c2cccc([N+](=O)[O-])c2C(=O)c2nccnc21 was tested, and the TGI [1] was 5.22 µM, the TGI [2] was 9.6 µM and the TGI [3] was 3.66 µM. For the same molecule, the TGI [4] was 3.5 µM, the TGI [5] was 3.04 µM and the TGI [6] was 3.2 µM. It also gave a TGI [7] of 18.6 µM and a TGI [9] of 2.92 µM.

For CN(C)CCCOc1ccc(/C=C2/CCC/C(=C/c3ccc(OCCCN(C)C)cc3)C2=O)cc1, the TGI [1] was 2.5 µM, the TGI [2] was 0.644 µM and the TGI [3] was 2.76 µM. It also gave a TGI [4] of 3.65 µM, a TGI [5] of 3.32 µM and a TGI [6] of 2.59 µM. The TGI [7] was 9.72 µM, the TGI [8] was 4.18 µM and the TGI [9] was 2.5 µM.

With Cc1cc(Cl)ccc1NC(=O)CC1SC(=NC(=O)c2ccccc2Cl)NC1=O (stereo not given) the TGI [1] was 6.65 µM, the TGI [2] was 84 µM and the TGI [3] was 32 µM. For the same molecule, the TGI [4] was greater than 100 µM, the TGI [5] was 37.1 µM and the TGI [6] was 35.7 µM. The TGI [7] was 35.9 µM and the TGI [9] was 33.1 µM.

For CC(C)COC(=O)c1ccc(N=Cc2ccc(C=Nc3ccc(C(=O)OCC(C)C)cc3)cc2)cc1, the TGI [1] was greater than 100 µM, the TGI [2] was greater than 100 µM and the TGI [4] was greater than 100 µM. For the same molecule, the TGI [5] was greater than 100 µM, the TGI [6] was greater than 100 µM and the TGI [7] was greater than 100 µM. For the same molecule, the TGI [8] was greater than 100 µM and the TGI [9] was greater than 100 µM.

Work on N#CC(C#N)=Cc1ccc(C(O)P(=O)(O)O)cc1 (stereo not given) yielded a TGI [1] greater than 100 µM, a TGI [2] greater than 100 µM and a TGI [3] greater than 100 µM. It also gave a TGI [4] greater than 100 µM, a TGI [5] greater than 100 µM and a TGI [6] greater than 100 µM. For the same molecule, the TGI [7] was greater than 100 µM, the TGI [8] was greater than 100 µM and the TGI [9] was greater than 100 µM.

Cc1ccc(NC(=O)CCc2nnc3s/c(=C\c4cccc([N+](=O)[O-])c4)c(=O)n23)cc1 was tested, and the TGI [1] was greater than 100 µM, the TGI [2] was greater than 100 µM and the TGI [3] was greater than 100 µM. The TGI [4] was greater than 100 µM, the TGI [5] was greater than 100 µM and the TGI [6] was greater than 100 µM. It also gave a TGI [7] greater than 100 µM, a TGI [8] greater than 100 µM and a TGI [9] greater than 100 µM.

Work on O=C(Nc1ccccc1)n1cc(-c2ccccn2)c(N2CCOCC2)n1 yielded a TGI [1] greater than 100 µM, a TGI [3] greater than 100 µM and a TGI [4] of 28.2 µM. It also gave a TGI [5] of 8.78 µM, a TGI [6] of 74.7 µM and a TGI [7] greater than 100 µM. It also gave a TGI [8] greater than 100 µM and a TGI [9] greater than 100 µM.

Cc1ccc(C(=O)C(c2nc3n(c2O)C(=N)N=N3)c2nc3n(c2O)C(=N)N=N3)cc1 (stereo not given) showed a TGI [1] greater than 100 µM, a TGI [2] greater than 100 µM and a TGI [4] greater than 100 µM. The TGI [5] was greater than 100 µM, the TGI [6] was greater than 100 µM and the TGI [7] was greater than 100 µM. For the same molecule, the TGI [8] was greater than 100 µM and the TGI [9] was greater than 100 µM.

COC(=O)C(=O)C(C#N)c1cccc(Cl)c1 (stereo not given) gave a TGI [1] greater than 100 µM, a TGI [2] greater than 100 µM and a TGI [3] greater than 100 µM. It also gave a TGI [4] greater than 100 µM, a TGI [5] greater than 100 µM and a TGI [6] greater than 100 µM. It also gave a TGI [8] greater than 100 µM and a TGI [9] greater than 100 µM.

For COc1cccc(N2C(=O)/C(=C/c3ccc(N(CCC#N)CCC#N)cc3)N=C2c2cc([N+](=O)[O-])ccc2Cl)c1, the TGI [1] was 68.2 µM, the TGI [2] was greater than 100 µM and the TGI [4] was greater than 100 µM. It also gave a TGI [5] greater than 100 µM, a TGI [6] greater than 100 µM and a TGI [8] greater than 100 µM. For the same molecule, the TGI [9] was greater than 100 µM.

In the case of O=CC1CCC=CC1NC(=O)OCc1ccccc1 (stereo not given), the TGI [1] is reported as greater than 100 µM, the TGI [2] is reported as greater than 100 µM and the TGI [3] is reported as greater than 100 µM. It also gave a TGI [4] greater than 100 µM, a TGI [6] greater than 100 µM and a TGI [7] greater than 100 µM. It also gave a TGI [8] greater than 100 µM and a TGI [9] greater than 100 µM.

O=C(CCC(=O)Nc1ccc(Cl)cc1)CC(=O)c1ccc2ccccc2c1 showed a TGI [1] greater than 100 µM, a TGI [2] greater than 100 µM and a TGI [3] greater than 100 µM. For the same molecule, the TGI [4] was greater than 100 µM, the TGI [5] was greater than 100 µM and the TGI [6] was greater than 100 µM. For the same molecule, the TGI [7] was greater than 100 µM, the TGI [8] was greater than 100 µM and the TGI [9] was greater than 100 µM.

With CCOC(=O)NC(=O)c1cn(CCCCCCCCCCC(=O)NCCCN2CCN(CCCNC(=O)CCCCCCCCCCn3cc(C(=O)NC(=O)OCC)c(=O)[nH]c3=O)CC2)c(=O)[nH]c1=O the TGI [1] was greater than 100 µM, the TGI [2] was greater than 100 µM and the TGI [3] was greater than 100 µM. The TGI [4] was greater than 100 µM, the TGI [5] was greater than 100 µM and the TGI [6] was greater than 100 µM. It also gave a TGI [7] greater than 100 µM, a TGI [8] greater than 100 µM and a TGI [9] greater than 100 µM.

Cc1cc2nc3c(=O)[nH]c(=O)nc-3n(CC(O)C(O)C(O)CO)c2cc1N (stereo not given) gave a TGI [1] greater than 100 µM, a TGI [3] greater than 100 µM and a TGI [4] greater than 100 µM. It also gave a TGI [6] greater than 100 µM, a TGI [7] greater than 100 µM and a TGI [8] greater than 100 µM. The TGI [9] was greater than 100 µM.

Cc1ccc2nc(Sc3c([N+](=O)[O-])ncn3C)[nH]c2c1 gave a TGI [1] of 31.1 µM, a TGI [2] greater than 100 µM and a TGI [3] of 53.9 µM. For the same molecule, the TGI [4] was greater than 100 µM, the TGI [5] was 47.4 µM and the TGI [6] was greater than 100 µM. The TGI [7] was 41.3 µM, the TGI [8] was greater than 100 µM and the TGI [9] was 32.4 µM.

With CC12CC/C(=N/NC(N)=O)C3C1CCCC32 the TGI [1] was greater than 100 µM, the TGI [3] was greater than 100 µM and the TGI [4] was greater than 100 µM. For the same molecule, the TGI [5] was greater than 100 µM, the TGI [6] was greater than 100 µM and the TGI [7] was greater than 100 µM. For the same molecule, the TGI [8] was greater than 100 µM and the TGI [9] was greater than 100 µM.

— PubChem BioAssay (NCI)
